Measured values as given in publication PMC6567057, “Pharmacokinetic, metabolic stability, plasma protein binding and CYP450s inhibition/induction assessment studies of N-(2-pyridylmethyl)-2-hydroxiymethyl-1-pyrrolidinyl-4-(3-chloro-4-methoxy-benzylamino)-5-pyrimidine-carboxamide as potential type 5 phosphodiesterase inhibitors” (Animal Cells and Systems, 2019).
Like-named read-outs stand apart in the source and are kept apart here.

Assays:
[1] = Stability in plasma, 6 h incubation at 37°C (rat); format: in vitro ADME; settings: Sprague-Dawley
Procedure: (§1) The phosphate buffer (100 mM) and sodium hydroxide solution (1.0 M) were prepared in deionized water. […] PPB was determined by equilibrium dialysis method. An aliquot (150 μL) of NHPPC spiked plasma and phosphate buffer (pH 7.4) was added into the donor side and the receiver side of each designated well. The plate was covered with adhesive sealing film to prevent evaporation and placed in a water-bath shaker kept at 37°C for 6 h with a rate of 50 rpm. […] At the end of 6 h, aliquots were taken from each side of each well (n = 3) and kept in a −20°C freezer prior to analysis. The stability, device recovery and PPB were calculated using the following equations: Remaining at 6 h (%)=C6h/C0h×100%, Device recovery (%)=CDonor+CReceiver/C6h×100%, PPB (%)=CDonor−CReceiver/CDonor×100%.

[2] = Plasma protein binding by equilibrium dialysis (human); format: in vitro ADME
Procedure: as §1

human plasma proteins = test: as above; format: in vitro ADME; settings: human plasma, mean of 0.2 and 1 µM
Procedure: as §1

[3] = In vitro metabolic stability in rat liver microsomes; format: in vitro ADME; settings: for remaining at 1 h, 1 µM: liver microsomes, pH 7.4, rat liver microsomes, 60 min, read-out: percent remaining
Procedure: The phosphate buffer (pH 7.4, 100 mM) and (300 mM) were prepared in deionized water. NADP and IA were dissolved in phosphate buffer and MgCl2 solution and then added 20 μL IDH (18 units/mg protein) and mixed. NHPPC (1 mM) and positive control drug were prepared by dilution using DMSO and then the NHPPC and positive control drug working solution (50 μM) were obtained by dilution using methanol: H2O (1:1, v/v) mixture. Pooled human, rat and dog liver microsomes were added to phosphate buffer pH7.4 to a concentration 20 mg/mL. NHPPC was incubated with liver microsomes. The incubation solution of the final reaction conditions contained 50 mM potassium phosphate buffer (pH 7.4), 0.5 mg protein/mL microsomes, 3 mM MgCl2, 2 mM NADPH and 1 μM NHPPC or positive control drug in a final volume of 100 μL. In sample and positive control groups, NADPH was added into the incubation solutions. In the negative control group, water (the replacement of NADPH) was added into the incubation solutions. Samples were incubated aerobically in a shaking water bath at 37°C and the reaction was terminated by adding 300 μL of ice cold acetonitrile (contain 100 ng/mL IS) at different interval 0, 5, 10, 20, 30 and 60 min. While positive control and negative control were incubated aerobically in a shaking water bath at 37°C for 0 and 60 min, respectively. NHPPC and control concentrations were determined by LC-MS/MS at each time point (n = 3). Calculation of t1/2 and CLint was performed by using following equations, where K is the elimination rate constant (min^−1) and QH is hepatic blood flow (mL/min/kg). t1/2=0.693/KCLint,in vitro=VD×KVD=Volume of reaction mixture(mL)/mg of protein per reation.
Hepatic intrinsic clearance was estimated by using the scaling factors and calculated by using the following equation (Lave et al. [1997]). CLint,in vivo=CLint×mg microsomal protein per liver×g liver per kg body weight, Cint,H=CLint,in vivo×QH/CLint,in vivo+QH,EH=CLint,H/QH.

[4] = In vivo pharmacokinetic study in rats; parameters: species or system male Sprague–Dawley rats; settings: rat; for MRT inf: read-out: MRT0-∞
Procedure: For the iv experiment, male SD rats (n = 3) were given a single dose of NHPPC (1 mg/kg) over 1 min by dorsal venous arch of foot. Approximately 200 µL blood samples were collected at 5, 15, 30 min and 1, 2, 4, 6, 8 and 24 h post-dose via tail vein into heparinized (coated with 0.1% heparin in saline) tubes. For the oral experiments, the male rats (n = 3) were given a single dose of 2 mg/kg. Then the blood samples were collected at 10, 30 min and 1, 2, 4, 6, 8 and 24 h post-dose. Plasma was obtained after centrifugation at 8000 rpm for 6 min (4°C) within 10 min of blood-drawing and stored at –70°C until they were analyzed.
Data analysis including analyte/IS was acquired using Analyst version 1.6.1 software (AB SCIEX). All pharmacokinetic parameters (for example: K10, AUC0–t, AUC0-∞, Cmax, Tmax, t1/2, CL, Vss, MRT0–∞, etc.) were analyzed based on a non-compartmental model and using Pharsight WinNonlin version 6.3 (St. Louis, USA). The area under the concentration time curve (AUC0–t and AUC0–∞) was calculated by linear trapezoidal rule. The natural logarithms (Ln) of the fraction remaining against incubation times (min) was plotted and the first-order rate constant of turnover is determined by a linear regression model. The final results (for example: the mean, standard deviation, the remaining, device recovery, ke, bioavailability, etc.) were electronically exported into Excel 7.0 (Redmond, USA) for data processing and formatting.

[5] = male, Sprague-Dawley, plasma, IV 1 mg/kg
[6] = male, Sprague-Dawley, plasma, PO 2 mg/kg

For `COc1ccc(CNc2nc(N3CCC[C@H]3CO)ncc2C(=O)NCc2ccccn2)cc1Cl` [NHPPC, N-(2-pyridylmethyl)-2-hydroxiymethyl-1-pyrrolidinyl-4-(3-chloro-4-methoxy-benzylamino)-5-pyrimidine-carboxamide], the remaining at 6 h, 0.2 µM ([1]; 0.2 µM, n = 3, read-out: Mean drug remaining %) was 100 ± 1.93%, the remaining at 6 h, 1 µM ([1]; 1 µM, n = 3, read-out: Mean drug remaining %) was 102 ± 1.26% and the remaining at 6 h ([1]; mean of 0.2 and 1 µM, read-out: Mean drug remaining %) was 101 ± 1.01%. The fraction unbound at 6 h, 0.2 µM ([2]; human, plasma, pH 7.4, human plasma, 0.2 µM, equilibrium dialysis 6 h, read-out: Mean PPB % (converted)) was 0.007, the fraction unbound at 6 h, 1 µM ([2]; human, plasma, pH 7.4, human plasma, 1 µM, equilibrium dialysis 6 h, read-out: Mean PPB % (converted)) was 0.005 and the recovery at 6 h, 0.2 μM ([2]; pH 7.4, human plasma, equilibrium dialysis, n = 3, read-out: Mean device recovery %) was 101.2 ± 0.02%. For the same compound, the “Mean PPB %” value (human plasma proteins) was 99.4 ± 0.13%, the half-life at 1 µM ([3]; pH 7.4, rat liver microsomes) was 0.708 h and the microsomal CLint at 1 µM ([3]; pH 7.4, rat liver microsomes, read-out: CLint, ivtro) was 23.3 µL/min/mg. It also gave a k el at 1 µM ([3]; pH 7.4, rat liver microsomes, read-out: Ke (converted)) of 0.000272 s⁻¹, a remaining at 1 h, 1 µM ([3]; rat, in the presence of NADPH, 1 μM) of 42.8% and a remaining at 1 h, 1 µM ([3]; rat, without NADPH regenerating system) of 102%. For the same compound, the ranking for clearance ([3]; rat, ranking criteria of Houston 1994, Kerns and Di 2008) was “middle clearance”, the CLH ([3]; rat, scaled from liver microsomes) was 27.5 mL/min/kg and the AUC(0-inf) [4, 5] was 866 ± 201 ng·h/mL. For the same compound, the AUC(0-t) [4, 5] was 847 ± 195 ng·h/mL, the clearance [4, 5] was 19.8 mL/min/kg and the half-life [4, 5] was 4.55 ± 0.11 h. For the same compound, the MRT inf [4, 5] was 5.5 ± 0.36 h, the Vd ([4]; male, Sprague-Dawley, plasma, IV 1 mg/kg, read-out: Vss) was 6.5 ± 1 L/kg and the AUC(0-inf) [4, 6] was 593 ± 137 ng·h/mL. It also gave an AUC(0-t) [4, 6] of 583 ± 135 ng·h/mL, a Cmax [4, 6] of 52.6 ± 12.9 ng/mL and a Tmax [4, 6] of 6 h. It also gave a half-life [4, 6] of 4.02 ± 0.39 h, an MRT inf [4, 6] of 7.8 ± 0.79 h and a K10 ([4]; IV 1 mg/kg) of 0.15 ± 0.00 h⁻¹. The K10 ([4]; PO 2 mg/kg) was 0.17 ± 0.02 h⁻¹.
